# Where a SMILES comes first, the peptide text is derived from it. The star is where a group is joined. Cbz = O=C(OCc1ccccc1)*
# B1: human ZSCAN4 (Zinc finger and SCAN domain containing 4) (other, UniProt Q8NAM6 1-433, looked up)
# chain: MALDLRTIFQCEPSENNLGSENSAFQQSQGPAVQREEGISEFSRMVLNSFQDSNNSYARQELQRLYRIFHSWLQPEKHSKDEIISLLVLEQFMIGGHCNDKASVKEKWKSSGKNLERFIEDLTDDSINPPALVHVHMQGQEALFSEDMPLRDVIVHLTKQVNAQTTREANMGTPSQTSQDTSLETGQGYEDEQDGWNSSSKTTRVNENITNQGNQIVSLIIIQEENGPRPEEGGVSSDNPYNSKRAELVTARSQEGSINGITFQGVPMVMGAGCISQPEQSSPESALTHQSNEGNSTCEVHQKGSHGVQKSYKCEECPKVFKYLCHLLAHQRRHRNERPFVCPECQKGFFQISDLRVHQIIHTGKKPFTCSMCKKSFSHKTNLRSHERIHTGEKPYTCPFCKTSYRQSSTYHRHMRTHEKITLPSVPSTPEAS
# notes: Immunoprecipitated from nuclear protein lysates; also called FLAG-ZSCAN4; tet-FLAG-ZSCAN4
# Key:
# [1] = test system: autophagy in tet-ZSCAN4 Tu167 cells; assay: Autophagy pathway assay (immunoblot); assay type: cell-based, human; details: 5 nM Bafilomycin A1 or 25 μM Chloroquine
# Method: tet-ZSCAN4 Tu167 cells were treated for 24 h with Dox and then autophagy inhibitors: 5 nM of Bafilomycin A1 or 25 μM of Chloroquine (Sigma) were added for 24 h. Whole cell lysate (50 μg) in RIPA buffer was used on 8% SDS-PAGE analyzed by immunoblot to visualize the following antigens: anti-ZSCAN4 (1:1000; Origene), anti-p62 (1:5000; Sigma), anti-LC3 (1:1000; CellSignaling Technology), Anti-Beta Actin (1:10,000; Millipore). All data shown represent at least 3 independent experiments.
# [2] = test system: proteasome; assay: ZSCAN4 / K48 ubiquitin co-localization by confocal microscopy; assay type: cell-based, human; details: WT Tu167 cells, 5 h; untreated about 5%
# Method: Cells were fixed in ice cold methanol/acetic acid (3:1). The fixed cells were dropped on microscope slides. Antigen retrieval was performed followed by blocking for 10 min at room temperature. Primary antibody was incubated overnight at 4° C. for the following antigens: ZSCAN4 (Origene, 1:1000) and Ubiquitin Lysine 48 (Millipore 1: 2000). The slides were washed and incubated with secondary antibodies conjugated with Alexa-488 or 568 at room temperature for 1 h and then treated with DAPI and To-Pro-3 to stain the nuclei. Slides were mounted and visualized by a Zeiss 510-confocal microscope. Co-localization analyses were performed by ImageJ software (Schneider et al., 2012);
# To further validate the lysine 48 polyubiquitination of ZSCAN4 protein, WT Tu167 cells were treated with or without MG132 for 5 h and co-immunostained for anti-K48-Ub and anti-ZSCAN4 (FIG. 19C).
# [3] = test system: proteasome; assay: ZSCAN4 accumulation after proteasome inhibition (immunoblot); assay type: cell-based, human
# Method: Nuclear proteins were fractionated using Nuclear Extraction Kit following manufacture's protocol (Active Motif). Total cell lysate was prepared in RIPA buffer and sonicated. For the detection of endogenous ZSCAN4 in Tu167 cells, cells were harvested by accutase (Millipore) and Cytoskeleton buffer (10 mM PIPES, 300 mM sucrose, 100 mM NaCl, 3 mM MgCl2, 1 mM EGTA and 0.5% Triton X100) was used to fractionate cytosolic proteins. Then, pellets were lysed in urea solution (8 M Urea in 0.01 Tris pH 8+0.1 M NaH2PO4) and sonicated. Nuclear proteins were electrophoresed in 8% polyacrylamide gels and transferred to a PVDF membrane. Immunoblot was performed using the following primary antibodies: ZSCAN4 (Origene; 1:1000), GAPDH (Santa Cruz; 1:5000), Actin (Sigma; 1:500), Lamin B (Santa Cruz; 1:2000) and with HRP (horseradish peroxidase) conjugated secondary antibodies (Millipore; 1:5000). Protein bands were detected using Pierce ECL Western Blotting Substrate (Thermo Scientific). SuperSignal West Femto (Thermo Scientific) was used to detect endogenous ZSCAN4 in Tu167 cells. All immunoblots shown represent at least 3 independent experiments.
# WT Tu167 cells were treated with indicated concentration of MG132 for 3-12 h. Cells treated with vehicle only were used as controls. Nuclear protein was isolated using urea extraction buffer. Then, 100 μg of nuclear lysate was diluted in IP-RIPA buffer with 0.1% SDS and denatured by heating to 90° C. for 10 minutes. Samples were taken for co-immunoprecipitation and immunoblot analyses.
# This prompted examination of the UPS. tet-ZSCAN4 cells were incubated with the proteasome inhibitor MG132 at multiple time points. […] Furthermore, we show a time dependence (FIG. 18C) and a dose response (FIG. 18D) to proteasome inhibition by MG132.
# To exclude that the response was specific to the exogenous ZSCAN4 induction, wild type (WT) Tu167 cells were treated with 5 uM MG132 for 0-12 h.
# [4] = target: T1, telomerase (UniProt O14746 1-1132, limits assumed); assay: ZSCAN4 complex analysis (ZSCAN4 immunoprecipitation followed by mass spectrometry)
# T1 construct: The tie to the hTERT protein subunit is my reading; also called hTERT
# T1 sequence (O14746 whole entry): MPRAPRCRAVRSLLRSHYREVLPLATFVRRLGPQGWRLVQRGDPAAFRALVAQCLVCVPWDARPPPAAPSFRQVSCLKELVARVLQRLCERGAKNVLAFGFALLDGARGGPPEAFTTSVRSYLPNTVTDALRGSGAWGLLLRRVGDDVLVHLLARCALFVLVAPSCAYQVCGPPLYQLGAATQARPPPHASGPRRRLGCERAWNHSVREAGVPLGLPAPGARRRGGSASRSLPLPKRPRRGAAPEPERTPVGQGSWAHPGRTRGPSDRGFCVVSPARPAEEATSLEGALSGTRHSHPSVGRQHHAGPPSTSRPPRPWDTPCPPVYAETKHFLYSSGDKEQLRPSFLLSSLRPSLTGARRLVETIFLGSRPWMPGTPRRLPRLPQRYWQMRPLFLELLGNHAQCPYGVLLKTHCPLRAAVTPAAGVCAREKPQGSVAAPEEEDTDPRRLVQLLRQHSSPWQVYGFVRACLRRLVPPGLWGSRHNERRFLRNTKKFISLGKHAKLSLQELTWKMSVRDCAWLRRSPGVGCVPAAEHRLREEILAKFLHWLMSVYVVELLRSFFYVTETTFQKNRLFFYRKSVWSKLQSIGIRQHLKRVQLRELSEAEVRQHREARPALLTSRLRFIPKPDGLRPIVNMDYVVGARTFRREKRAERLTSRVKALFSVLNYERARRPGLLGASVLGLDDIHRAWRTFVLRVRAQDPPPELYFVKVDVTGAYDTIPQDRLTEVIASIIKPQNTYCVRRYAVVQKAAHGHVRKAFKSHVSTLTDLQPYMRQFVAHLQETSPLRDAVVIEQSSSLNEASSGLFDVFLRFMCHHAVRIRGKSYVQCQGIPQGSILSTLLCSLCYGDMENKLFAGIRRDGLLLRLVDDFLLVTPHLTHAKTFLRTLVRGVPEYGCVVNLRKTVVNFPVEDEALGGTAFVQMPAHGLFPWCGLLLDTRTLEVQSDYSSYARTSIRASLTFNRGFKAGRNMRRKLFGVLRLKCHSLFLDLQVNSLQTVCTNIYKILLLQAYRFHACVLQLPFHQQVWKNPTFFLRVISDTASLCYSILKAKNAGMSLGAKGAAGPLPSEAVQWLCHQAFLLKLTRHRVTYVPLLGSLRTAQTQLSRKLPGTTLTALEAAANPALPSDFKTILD
molecule,measurement,setting,value
CO/C1=C\C(C)=C\[C@@H](C)[C@@H](O)[C@@H](C)C/C(C)=C/C=C/[C@H](OC)[C@@H]([C@@H](C)[C@@H](O)[C@H](C)[C@@]2(O)C[C@@H](O)[C@H](C)[C@@H](C(C)C)O2)OC1=O [Bafilomycin A1],ZSCAN4 levels,[1],remained unchanged
same,p62 and LC-3 levels,[1],accumulate
CCN(CC)CCCC(C)Nc1ccnc2cc(Cl)ccc12 (stereo not drawn) [Chloroquine],ZSCAN4 levels,[1],remained unchanged
same,p62 and LC-3 levels,[1],accumulate
CC(C)C[C@@H](C=O)NC(=O)[C@H](CC(C)C)NC(=O)[C@H](CC(C)C)NC(=O)OCc1ccccc1 [MG132] (Cbz-Leu-Leu-Leu-aldehyde),fraction of ZSCAN4 co-localized with K48-Ub relative to untreated,[2],4 fold
same,ZSCAN4 accumulation versus dose,[3]; tet-ZSCAN4 cells,dose response
same,ZSCAN4 accumulation over time,"[3]; tet-ZSCAN4 cells, multiple time points through 12 h",time dependent accumulation of ZSCAN4
same,endogenous ZSCAN4 level,"[3]; wild type Tu167 cells, 5 uM, 0-12 h",endogenous ZSCAN4 accumulates
B1,binding result,[4],no binding

# Reference: US20210079402A1, “INHIBITION OF ZSCAN4 FOR INHIBITION OF TUMOR GROWTH” (University of Maryland, Baltimore, priority 2018, published 2021)
